Measured values reported in patent publication US10513538B2, “Dipeptidyl peptidase-IV (DPPIV), inhibitory peptide compound, composition containing the same, and production method for the same” (MARUHA NICHIRO CORPORATION, priority 2013, dated 2019).
Residues, ends and D or L forms follow the SMILES beside them.

Target: T1, DPPIV (Human, recombinant) (Homo sapiens, UniProt P27487)
T1 construct: purchased Biomol (DPPIV Drug Discovery Assay Kit, Enzo Life Sciences, Inc.)
Assay: DPPIV inhibitory activity measurement with partly modified DPPIV Drug Discovery Assay Kit (AMC substrate)
Assay type: biochemical
Details: for Activity Contribution Ratio (%): contribution of the peptide to the DPPIV inhibitory activity of the salmon milt peptide composition, from content, peptide IC50 and composition IC50; for IC50: synthesized peptide, serially diluted
Description: Each of the DPPIV inhibitory peptide compounds obtained in Example 1 was measured for the DPPIV inhibitory activity. The measurement was performed by using a partly modified DPPIV Drug Discovery Assay Kit (manufactured by Enzo Life Sciences, Inc.). As a substrate of a DPPIV enzyme, an AMC substrate (H-Gly-Pro-amino-4-methylcoumarin, BML-P189-9090; manufactured by Biomol) was used, as an enzyme, DPPIV (Human, recombinant; manufactured by Biomol) was used, and as a control inhibitor, Diprotin A (manufactured by Peptide Institute Inc.) was used. […] To the resultant solution, 50 μL of an AMC substrate solution (0.01 mM) pre-incubated at 37° C. was added, and a fluorescence intensity was measured at an excitation wavelength of 340 nm and a measurement wavelength of 460 nm every 5 minutes for 30 minutes by using a microplate reader (GENio Pro, manufactured by TECAN). The activity in the case without sample was set as 100%, and the relative activity of each sample was calculated. The measurement was repeatedly performed three times for each sample to obtain an average.
Each of the peptide compositions thus obtained was dissolved in distilled water in a concentration of 3 mg/mL, the resultant was subjected to a 0.45 μm membrane filter treatment, and the DPPIV inhibitory activity test was performed in the same manner as in Example 2.
Each peptide identified by the LC-MS analysis of Example 6 was synthesized and dissolved in distilled water to find the DPPIV inhibitory activity in the same manner as in Example 2.

T1 sequence (P27487 whole entry): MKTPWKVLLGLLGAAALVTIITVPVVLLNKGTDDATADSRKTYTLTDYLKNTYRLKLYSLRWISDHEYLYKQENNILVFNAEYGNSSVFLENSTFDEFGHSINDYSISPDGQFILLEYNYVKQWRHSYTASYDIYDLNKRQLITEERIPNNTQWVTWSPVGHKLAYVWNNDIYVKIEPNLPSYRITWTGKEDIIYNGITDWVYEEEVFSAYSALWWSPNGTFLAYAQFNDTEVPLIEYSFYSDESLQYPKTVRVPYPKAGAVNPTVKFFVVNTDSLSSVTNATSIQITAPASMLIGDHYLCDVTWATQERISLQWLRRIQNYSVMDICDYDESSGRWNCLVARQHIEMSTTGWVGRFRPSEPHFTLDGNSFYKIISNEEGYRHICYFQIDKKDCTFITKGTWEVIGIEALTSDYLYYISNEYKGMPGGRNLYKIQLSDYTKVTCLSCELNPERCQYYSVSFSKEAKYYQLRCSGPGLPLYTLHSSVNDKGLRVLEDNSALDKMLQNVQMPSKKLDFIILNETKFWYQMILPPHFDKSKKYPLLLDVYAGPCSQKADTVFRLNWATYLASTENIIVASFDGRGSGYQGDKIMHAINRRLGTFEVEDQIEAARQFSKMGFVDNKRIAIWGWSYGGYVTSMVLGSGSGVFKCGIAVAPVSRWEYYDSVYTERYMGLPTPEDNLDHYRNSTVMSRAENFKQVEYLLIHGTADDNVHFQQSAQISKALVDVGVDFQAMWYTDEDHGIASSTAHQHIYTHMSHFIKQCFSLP

Row | SMILES | Activity Contribution Ratio (%) | IC50
1 | CC(C)C[C@H](NC(=O)[C@@H](NC(=O)[C@@H]1CCCN1C(=O)[C@@H](N)CC(C)C)C(C)C)C(=O)O [LPVL, Leu-Pro-Val-Leu] (H-LPVL-OH; N-terminus and C-terminus assumed) | 0.2% | 46 µM
2 | CC(C)C[C@H](N)C(=O)N1CCC[C@H]1C(=O)O [LP, Leu -Pro] (H-Leu-Pro-OH) |  | > 100 µM
3 | CC(C)[C@H](NC(=O)[C@@H]1CCCN1C(=O)[C@@H](N)Cc1ccccc1)C(=O)NCC(=O)O [FPVG, Phe-Pro-Val-Gly] (H-FPVG-OH; N-terminus and C-terminus assumed) | 0.4% | 40 µM
4 | N[C@@H](Cc1ccccc1)C(=O)N1CCC[C@H]1C(=O)O [FP, Phe-Pro] (H-Phe-Pro-OH) |  | > 100 µM
5 | CC[C@H](C)[C@H](N)C(=O)N1CCC[C@H]1C(=O)O [IP, Ile-Pro] (H-Ile-Pro-OH; N-terminus and C-terminus assumed) | 6.6% | 66 µM
